Assay results published in publication PMC6175903, “Tuneable poration: host defense peptides as sequence probes for antimicrobial mechanisms” (Scientific Reports, 2018).
Where two headings read alike, the source gives them in different places. Marks after values point to notes of the source that are not given here. Bridge positions count the residues as written; N and C are the ends. Square brackets hold non-standard residues; d marks the D form. Ends that are not written are not given here. Peptide text beside a SMILES is read from it. * marks the point of attachment. X1 = CC[C@H](C)CCCCC(=O)*; Dab = NCC[C@H](N)C(=O)O

What was measured:
human erythrocytes = settings: for LC50, median (50%) lethal concentration: human erythrocytes; for hemolysis: 250 µM
Method: Hemolysis was determined by incubating a 10% (vol/vol) suspension of human erythrocytes with peptides. Erythrocytes were rinsed four times in 10 mM phosphate buffer saline (PBS), pH 7.2, by repeated centrifugation and re-suspension (3 min at 3000 × g). Erythrocytes were incubated at room temperature for 1 h in either deionized water (fully haemolysed control), PBS, or with peptide in PBS. After centrifugation at 10,000 × g for 5 min, the supernatant was separated from the pellet, and the absorbance was measured at 550 nm. Absorbance of the suspension treated with deionized water defined complete hemolysis. […] All tests were done in triplicate.

E. coli (K12) = assay: microbe, parasite or virus in culture; assay type: cell-based; settings: read-out: Minimum inhibitory concentrations
Method: (§1) Minimum inhibitory concentrations (MICs) were determined by broth microdilution on P. aeruginosa (ATCC27853), E. coli (K12), S. aureus (ATCC6538), M. luteus (NCIMB13267), B. subtilis (ATCC6633), S. typhimurium (DA6192) and E. faecalis (OG1X) according to the Clinical and Laboratory Standards Institute and as recommended for antimicrobial peptide testing. Typically, 100 μL of 0.5–1 × 10^6 CFU per ml of each bacterium in Mueller Hinton media broth (Oxoid) were incubated in 96-well polystyrene microtiter plates with 100 μL of serial twofold dilutions of the peptides (from 100 to 0 μM) at 37 °C on a 3D orbital shaker. The absorbance was measured after peptide addition at 600 nm using a Victor 2 plate reader (Perkin-Elmer). MICs were defined as the lowest peptide concentration after 24 h at 37 °C. The mutant strains of S. typhimurium, named using the original nomenclature, were kindly provided by Dan Andersson[55].

[1] = tested on: P. aeruginosa (ATCC27853); assay: microbe, parasite or virus in culture; assay type: cell-based; settings: read-out: Minimum inhibitory concentrations
Method: as §1

B. subtilis (ATCC6633) = assay: microbe, parasite or virus in culture; assay type: cell-based; settings: read-out: Minimum inhibitory concentrations
Method: as §1

S. typhimurium (DA6192) = assay: microbe, parasite or virus in culture; assay type: cell-based; settings: 24 h at 37 °C, triplicate, read-out: Minimum inhibitory concentrations
Method: as §1, with “Typically, 100 μL of 0.5–1 × 10^6 CFU per ml of each bacterium in Mueller Hinton media broth (Oxoid) were incubated in 96-well polystyrene microtiter plates with 100 μL of serial twofold dilutions of the peptides (from 100 to 0 μM) at 37 °C on a 3D orbital shaker.” left out

M. luteus (NCIMB13267) = assay: microbe, parasite or virus in culture; assay type: cell-based; settings: read-out: Minimum inhibitory concentrations
Method: as §1, with “Typically, 100 μL of 0.5–1 × 10^6 CFU per ml of each bacterium in Mueller Hinton media broth (Oxoid) were incubated in 96-well polystyrene microtiter plates with 100 μL of serial twofold dilutions of the peptides (from 100 to 0 μM) at 37 °C on a 3D orbital shaker.” left out

S. aureus (ATCC6538) = assay: microbe, parasite or virus in culture; assay type: cell-based; settings: read-out: Minimum inhibitory concentrations
Method: as §1, with “Typically, 100 μL of 0.5–1 × 10^6 CFU per ml of each bacterium in Mueller Hinton media broth (Oxoid) were incubated in 96-well polystyrene microtiter plates with 100 μL of serial twofold dilutions of the peptides (from 100 to 0 μM) at 37 °C on a 3D orbital shaker.” left out

[2] = tested on: S. typhimurium DA22427 waaY (del bp17FS); assay: microbe, parasite or virus in culture; assay type: cell-based; settings: for MIC: Salmonella enterica, TYPHIMURIUM, 24 h, read-out: Minimum inhibitory concentrations; for Minimum inhibitory concentrations: S. typhimurium mutant DA22427 waaY (del bp17FS), broth microdilution, 24 h at 37 °C, triplicate
Method: (§2) To explore these variations, the peptides were tested against cross-resistant strains of S. typhimurium, which were experimentally derived from the wild type bacterium subjected to increasing concentrations of pore-forming human HDPs[55]. Three genetic mutations were selected as candidate contributors to resistance and were reconstituted in the wild type genetic background, giving rise to the strains given in Table 2. One strain has the waaY gene mutated. This gene encodes for WaaY kinase that adds a phosphate group to the heptose II residue in the LPS inner core. The deactivation of the gene leads to decreased susceptibility to HDPs[56], as a result of reducing peptide binding to cell surfaces to the levels below those necessary to lyse the bacterium. Two other strains were mutated in pmrB and phoP genes, both of which are involved in masking phosphate groups (diminished charge) and influencing membrane fluidity (restricted motion)[58]. Finally, the fourth strain combined all three mutations (Table 2).
as §1

[3] = tested on: S. typhimurium DA23899 waaY, pmrB, phoP; assay: microbe, parasite or virus in culture; assay type: cell-based; settings: for MIC: Salmonella enterica, TYPHIMURIUM, 24 h, read-out: Minimum inhibitory concentrations; for Minimum inhibitory concentrations: S. typhimurium mutant DA23899 waaY, pmrB, phoP, broth microdilution, 24 h at 37 °C, triplicate
Method: as §2, §1

[4] = tested on: S. typhimurium DA23175 pmrB (R13H); assay type: cell-based; settings: S. typhimurium mutant DA23175 pmrB (R13H); broth microdilution, 24 h at 37 °C, triplicate
Method: as §2, §1

[5] = tested on: S. typhimurium DA23307 phoP (D23N); assay type: cell-based; settings: S. typhimurium mutant DA23307 phoP (D23N); broth microdilution, 24 h at 37 °C, triplicate
Method: as §2, §1

[6] = for comparison, naturally occurring HDPs; cited from earlier work
Method: The improved amphipathicity of CecM compared to CecB was evaluated by calculating the mean hydrophobic moment using HeliQuest[70]. The mean hydrophobic moment is a two-dimensional vector sum which provides a direct, quantitative measure of amphipathicity in regular repeats. The mean hydrophobic moment increases from CecB (0.296) to CecM (0.350). For comparison, values for PGLa and magainin, two naturally occurring HDPs, are 0.260 and 0.286, respectively. Percentage of secondary structure elements was calculated using STRIDE[73]. Oligomerisation simulations were performed over 500 ns fo ...

[7] = 10% (vol/vol) suspension in PBS pH 7.2, 1 h at room temperature, absorbance 550 nm, triplicate (Table 1)
[8] = S. typhimurium DA6192 (wild type, Table 2), broth microdilution
[9] = S. typhimurium (Table 1), broth microdilution (CLSI), Mueller Hinton broth, absorbance 600 nm
[10] = M. luteus, broth microdilution (CLSI), Mueller Hinton broth, 24 h at 37 °C, absorbance 600 nm, triplicate
[11] = E. coli, Ala-d3 ChoM mutants (Table S6), broth microdilution
[12] = P. aeruginosa, Ala-d3 ChoM mutants (Table S6), broth microdilution
[13] = S. aureus, Ala-d3 ChoM mutants (Table S6), broth microdilution

Compound	LC50, median (50%) lethal concentration (human erythrocytes; [7])	MIC (S. typhimurium (DA6192); [8]) [µM]	MIC (S. typhimurium (DA6192); [9]) [µM]	MIC (M. luteus (NCIMB13267); [10]) [µM]	Minimum inhibitory concentrations [2] [µM]	Minimum inhibitory concentrations [3] [µM]	Minimum inhibitory concentrations [4] [µM]	Minimum inhibitory concentrations [5] [µM]	also measured
CO/N=C(\C(=O)N[C@@H]1C(=O)N2C(C(=O)O)=C(CSc3nc(=O)c(=O)[nH]n3C)CS[C@H]12)c1csc(N)n1 [ceftriaxone]	UD (UD is for undetectable (>1000))	<1							MIC (E. coli (K12); Escherichia coli, E. coli, broth microdilution (CLSI), Mueller Hinton broth, serial twofold dilutions 100 to 0 μM, 24 h at 37 °C, absorbance 600 nm, triplicate): < 6 µM; MIC ([1]; Pseudomonas aeruginosa, ATCC27853, P. aeruginosa, broth microdilution (CLSI), Mueller Hinton broth, serial twofold dilutions 100 to 0 μM, 24 h at 37 °C, absorbance 600 nm, triplicate): > 25 µM; MIC (B. subtilis (ATCC6633); Bacillus subtilis, ATCC6633, B. subtilis, broth microdilution (CLSI), Mueller Hinton broth, serial twofold dilutions 100 to 0 μM, 24 h at 37 °C, absorbance 600 nm, triplicate): < 1 µM; MIC (S. typhimurium (DA6192); Salmonella enterica, S. typhimurium (Table 1), broth microdilution (CLSI), Mueller Hinton broth, absorbance 600 nm): < 1 µM; MIC (M. luteus (NCIMB13267); Micrococcus luteus, NCIMB13267, M. luteus, broth microdilution (CLSI), Mueller Hinton broth, 24 h at 37 °C, absorbance 600 nm, triplicate): < 0.5 µM; MIC (S. aureus (ATCC6538); Staphylococcus aureus, ATCC6538, S. aureus, broth microdilution (CLSI), Mueller Hinton broth, serial twofold dilutions 100 to 0 μM, 24 h at 37 °C, absorbance 600 nm, triplicate): < 3 µM; MIC [2]: < 1 µM; MIC [3]: < 1 µM
CCCCCCCCCC(=O)N[C@@H](Cc1c[nH]c2ccccc12)C(=O)N[C@H](CC(N)=O)C(=O)N[C@@H](CC(=O)O)C(=O)N[C@@H]1C(=O)NCC(=O)N[C@@H](CCCN)C(=O)N[C@@H](CC(=O)O)C(=O)N[C@H](C)C(=O)N[C@@H](CC(=O)O)C(=O)NCC(=O)N[C@H](CO)C(=O)N[C@@H]([C@H](C)CC(=O)O)C(=O)N[C@@H](CC(=O)c2ccccc2N)C(=O)O[C@@H]1C [daptomycin]	>250^c µM		>60	<15					hemolysis (human erythrocytes; pH 7.2): 10%; MIC (B. subtilis (ATCC6633); B. subtilis, broth microdilution (CLSI), Mueller Hinton broth, serial twofold dilutions 100 to 0 μM, 24 h at 37 °C, absorbance 600 nm, triplicate): <7 µM
KWKVFKKAEKMIRNIRNKIVK [I8A]									LC50, median (50%) lethal concentration (human erythrocytes; Ala-d3 ChoM mutants (Table S6)): > 250 µM; MIC (E. coli (K12); [11]): > 3 µM; MIC [1, 12]: > 6 µM; MIC (S. aureus (ATCC6538); [13]): > 25 µM
CC[C@H](C)CCCCC(=O)N[C@@H](CCN)C(=O)N[C@H](C(=O)N[C@@H](CCN)C(=O)N[C@H]1CCNC(=O)[C@H]([C@@H](C)O)NC(=O)[C@H](CCN)NC(=O)[C@H](CCN)NC(=O)[C@H](CC(C)C)NC(=O)[C@@H](Cc2ccccc2)NC(=O)[C@H](CCN)NC1=O)[C@@H](C)O [polymyxin B] (X1-[Dab]T[Dab][Dab][Dab][dF]L[Dab][Dab]T; lactam 4-C (inferred); N-terminus assumed)		<0.5			<0.5	<6	<0.5	<2	
KWKVFKKIEKMGRNIRNGIVKAGPAIAVLGEAKAL-NH2 [CecB, Cecropin B]	>250^d µM	<3	<3	<1	<3	>6	<3	<3	
PGLa									mean hydrophobic moment [6]: 0.260
KWKVFKKIEKMGRNIRNGIVK-NH2 [ChoC]	>250^d µM	>12	>12	<1	>12	>25	>25	>25	
magainin									mean hydrophobic moment [6]: 0.286
KWKVLKKKIKMLRNRINGLVKAGPALKVKLQALAL-NH2 [CecM]	>250^d µM	<1	<1	<1	<1	<2	<1	<2	
KWKAFKKIEKMIRNIRNKIVK [V4A]									hemolysis (human erythrocytes): 1-2%; LC50, median (50%) lethal concentration (human erythrocytes; Ala-d3 ChoM mutants (Table S6)): > 250 µM; MIC (E. coli (K12); [11]): > 3 µM; MIC [1, 12]: > 3 µM; MIC (S. aureus (ATCC6538); [13]): > 12 µM
CN(C)[C@@H]1C(O)=C(C(N)=O)C(=O)[C@@]2(O)C(O)=C3C(=O)c4c(O)cccc4[C@@](C)(O)[C@H]3C[C@@H]12 [tetracycline]	UD (UD is for undetectable (>1000))		<1						MIC (E. coli (K12); Escherichia coli, 24 h): < 1.5 µM; MIC ([1]; Pseudomonas aeruginosa, ATCC27853, 24 h): < 6 µM; MIC (B. subtilis (ATCC6633); Bacillus subtilis, ATCC6633, 24 h): < 0.5 µM; MIC (S. typhimurium (DA6192); Salmonella enterica, S. typhimurium DA6192 (wild type, Table 2), broth microdilution): < 1 µM; MIC (M. luteus (NCIMB13267); Micrococcus luteus, NCIMB13267, 24 h): < 0.5 µM; MIC (S. aureus (ATCC6538); Staphylococcus aureus, ATCC6538, 24 h): < 0.5 µM; MIC [2]: < 1 µM; MIC [3]: < 1 µM
